This passage reports pest or weed control results from patent US4243408A, “Herbicidal N-triazolylmethyl-substituted alpha-haloacetanilide” (Chevron Research Company, priority 1978, dated 1981).

What all share (format): in vivo
The subject of test [1] is Watergrass (Echinochloa). Kind of test: Pre-Emergent Test, herbicidal effectiveness. The note with it: pre-emergence, 504 h, 33 micrograms per cm^2, 3 weeks, 0-to-100 scale, read-out: Herbicidal Effectiveness, % Control Pre, W. How it is done: (§1) An acetone solution of the test compound was prepared by mixing 750 mg of the compound, 220 mg of a nonionic surfactant and 25 ml of acetone. This solution was added to approximately 125 ml of water containing 156 mg of surfactant.
(§2) Seeds of the test vegetation were planted in a pot of soil and the test solution was sprayed uniformly onto the soil surface at a dose of 33 micrograms/cm^2. The pot was watered and placed in a greenhouse. […] At the end of this period, the herbicidal effectiveness of the compound was rated based on the physiological observations. A 0-to-100 scale was used, 0 representing no phytotoxicity, 100 representing complete kill.

In test [2] the test system is Lambsquarter (Chenopodium album). The experiment in a line: Pre-Emergent Test, herbicidal effectiveness. As to conditions: pre-emergence, 504 h, 33 micrograms per cm^2, 3 weeks, 0-to-100 scale, read-out: Herbicidal Effectiveness, % Control Pre, L. The method, then:
as §1, §2

Test [3] relates to Pigweed (Amaranthus retroflexus). The experiment in a line: Pre-Emergent Test, herbicidal effectiveness. The note with it: pre-emergence, 504 h, 33 micrograms per cm^2, 3 weeks, 0-to-100 scale, read-out: Herbicidal Effectiveness, % Control Pre, P. The method, then: as §1, §2
Test [4] deals with Mustard (Brassica arvensis). Kind of test: Pre-Emergent Test, herbicidal effectiveness. The note with it: pre-emergence, 504 h, 33 micrograms per cm^2, 3 weeks, 0-to-100 scale. How it is done: as §1, §2
Test [5] concerns Wild Oats (Avena fatua). The experiment in a line: Pre-Emergent Test, herbicidal effectiveness. The note with it: pre-emergence, 504 h, 33 micrograms per cm^2, 3 weeks, 0-to-100 scale, read-out: Herbicidal Effectiveness, % Control Pre, O. The method, then: as §1, §2
Test [6] relates to Crabgrass (Digitaria sanguinalis). Kind of test: Pre-Emergent Test, herbicidal effectiveness. The note with it: pre-emergence, 504 h, 33 micrograms per cm^2, 3 weeks, 0-to-100 scale, read-out: Herbicidal Effectiveness, % Control Pre, C. How it is done:
as §1, §2

The test system of test [7] is Watergrass (Echinochloa). The experiment in a line: Post-Emergent Test, herbicidal effectiveness. As to conditions: post-emergence, 504 h, 33 micrograms per cm^2, 3 weeks, 0-to-100 scale, read-out: Herbicidal Effectiveness, % Control Post, W.
Test [8] concerns Lambsquarter (Chenopodium album). The experiment in a line: Post-Emergent Test, herbicidal effectiveness. The note with it: post-emergence, 504 h, 33 micrograms per cm^2, 3 weeks, 0-to-100 scale, read-out: Herbicidal Effectiveness, % Control Post, L.
The test system of test [9] is Pigweed (Amaranthus retroflexus). The experiment in a line: Post-Emergent Test, herbicidal effectiveness. The note with it: post-emergence, 504 h, 33 micrograms per cm^2, 3 weeks, 0-to-100 scale, read-out: Herbicidal Effectiveness, % Control Post, P.
The test system of test [10] is Mustard (Brassica arvensis). Kind of test: Post-Emergent Test, herbicidal effectiveness. As to conditions: post-emergence, 504 h, 33 micrograms per cm^2, 3 weeks, 0-to-100 scale.
For test [11], the system named is Wild Oats (Avena fatua). The experiment in a line: Post-Emergent Test, herbicidal effectiveness. As to conditions: post-emergence, 504 h, 33 micrograms per cm^2, 3 weeks, 0-to-100 scale, read-out: Herbicidal Effectiveness, % Control Post, O.
For test [12], the system named is Crabgrass (Digitaria sanguinalis). The experiment in a line: Post-Emergent Test, herbicidal effectiveness. As to conditions: post-emergence, 504 h, 33 micrograms per cm^2, 3 weeks, 0-to-100 scale, read-out: Herbicidal Effectiveness, % Control Post, C.

Turning to `Cc1nnc(CNc2ccccc2C)[nH]1` [Compound 25A], the pest or weed control at 33 µg/cm2 (in the test on Watergrass (Echinochloa) [1]; in test [2]; in test [3]; in [4]; in the test with Wild Oats (Avena fatua) [5]; in test [6]) was 0% each time. In addition, the pest or weed control at 5000 µg/mL, 33 µg/cm2 (in the test on Watergrass (Echinochloa) [7]; in test [8]; in test [9]; in test [10]; in the test with Wild Oats (Avena fatua) [11]; in test [12]) was 0% throughout.
`CCc1cccc(C)c1N(Cc1nnc(SC)n1C)C(=O)CCl` [Compound 21B]: the pest or weed control at 33 µg/cm2 in the test on Watergrass (Echinochloa) [1] worked out at 98%; in [2], 0%; in test [3], 0%; in test [4], 0%; in the test with Wild Oats (Avena fatua) [5] it was 0%; in test [6] it was 0%. For the same molecule, the pest or weed control at 5000 µg/mL, 33 µg/cm2 (in the test with Watergrass (Echinochloa) [7]; in [8]; in [9]; in test [10]; in the test on Wild Oats (Avena fatua) [11]; in [12]) was 0% throughout.
On to `Cc1cccc(C)c1NCc1nnc(S)n1C` [Compound 3, 3-(2,6-dimethylphenylaminomethyl)-4-methyl-5-mercapto-1,2,4-triazole], for which the pest or weed control at 33 µg/cm2 (with Watergrass (Echinochloa) [1]; in [2]; in test [3]; in [4]; with Wild Oats (Avena fatua) [5]; in [6]) was 0% in each case. Moreover, the pest or weed control at 5000 µg/mL, 33 µg/cm2 (in the test on Watergrass (Echinochloa) [7]; in [8]; in test [9]; in test [10]; with Wild Oats (Avena fatua) [11]; in [12]) was 0% in each case.
In the case of `CSc1nnc(CN(C(=O)CCl)c2c(C)cccc2C)o1` [Compound 24B], the pest or weed control at 33 µg/cm2 in the test on Watergrass (Echinochloa) [1] turned out to be 100%; in test [2], 10%; in [3], 10%; in test [4], 10%; in the test on Wild Oats (Avena fatua) [5] it was 85%; in test [6], 100%. The pest or weed control at 5000 µg/mL, 33 µg/cm2 (in the test with Watergrass (Echinochloa) [7]; in test [8]; in [9]; in test [10]; with Wild Oats (Avena fatua) [11]; in [12]) was 0% each time.
For `CCc1cccc(CC)c1NCc1nnc[nH]1` [Compound 20A], the pest or weed control at 33 µg/cm2 (with Watergrass (Echinochloa) [1]; in [2]; in [3]; in [4]; in the test on Wild Oats (Avena fatua) [5]; in test [6]) was 0% each time. The pest or weed control at 5000 µg/mL, 33 µg/cm2 (in the test on Watergrass (Echinochloa) [7]; in test [8]; in test [9]; in [10]; in the test on Wild Oats (Avena fatua) [11]; in test [12]) was 0% throughout.
`CCc1cccc(C)c1N(Cc1nnc(C(C)C)[nH]1)C(=O)CCl` [Compound 16B]: the pest or weed control at 33 µg/cm2 in the test with Watergrass (Echinochloa) [1] is 100%; in test [2] it was 100%; in test [3] it was 95%; in test [4], 95%; with Wild Oats (Avena fatua) [5] it was 100%; in [6], 100%. Also, the pest or weed control at 5000 µg/mL, 33 µg/cm2 in the test with Watergrass (Echinochloa) [7] worked out at 75%; in test [8] it was 35%; in [9], 40%; in test [10] it was 40%; with Wild Oats (Avena fatua) [11], 70%; in [12] it was 70%.
Turning to `CCc1nnc(CNc2c(C)cccc2CC)[nH]1` [Compound 15A], the pest or weed control at 33 µg/cm2 (in the test on Watergrass (Echinochloa) [1]; in [2]; in test [3]; in [4]; with Wild Oats (Avena fatua) [5]; in test [6]) was 0% throughout. Besides, the pest or weed control at 5000 µg/mL, 33 µg/cm2 (in the test with Watergrass (Echinochloa) [7]; in [8]; in test [9]; in test [10]; with Wild Oats (Avena fatua) [11]; in test [12]) was 0% in each case.
In the case of `CCc1cccc(CC)c1N(Cc1nnc[nH]1)C(=O)CCl` [Compound 20B], the pest or weed control at 33 µg/cm2 in the test on Watergrass (Echinochloa) [1] came to 100%; in test [2] it was 97%; in test [3], 100%; in [4], 95%; with Wild Oats (Avena fatua) [5], 97%; in test [6], 95%. For the same molecule, the pest or weed control at 5000 µg/mL, 33 µg/cm2 in the test on Watergrass (Echinochloa) [7] came to 55%; in test [8], 25%; in [9] it was 35%; in test [10], 30%; with Wild Oats (Avena fatua) [11] it was 0%; in test [12] it was 30%.
With `CCc1cccc(C)c1NCc1nnc(C(C)C)[nH]1` [Compound 16A], the pest or weed control at 33 µg/cm2 (in the test on Watergrass (Echinochloa) [1]; in test [2]; in test [3]; in test [4]; with Wild Oats (Avena fatua) [5]; in test [6]) was 0% in each case. In addition, the pest or weed control at 5000 µg/mL, 33 µg/cm2 (in the test with Watergrass (Echinochloa) [7]; in test [8]; in test [9]; in [10]; in the test with Wild Oats (Avena fatua) [11]; in test [12]) was 0% in each case.
Regarding `CCc1cccc(C)c1NCc1nnc(S)n1C` [Compound 19], the pest or weed control at 33 µg/cm2 (in the test on Watergrass (Echinochloa) [1]; in test [2]; in test [3]; in test [4]; in the test with Wild Oats (Avena fatua) [5]; in test [6]) was 0% in each case. Besides, the pest or weed control at 5000 µg/mL, 33 µg/cm2 (in the test with Watergrass (Echinochloa) [7]; in test [8]; in test [9]; in test [10]; in the test with Wild Oats (Avena fatua) [11]; in test [12]) was 0% throughout.
